# Data from patent US20240246908A1 (ORION CORPORATION, priority 2021, published 2024).
# System: YAP-TEAD
# Test: TEAD inhibition, Hippo Pathway TEAD Reporter MCF-7 luciferase assay
# Format: cell-based
# Conditions: Homo sapiens, MCF7, 24 h, Hippo Pathway TEAD Reporter MCF-7 cells, luciferase activity after 24 h; read-out: IC50 of the test compounds on YAP-TEAD inhibition (Group)
# Outline: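 MCF-7 cells carrying a TEAD-responsive firefly luciferase reporter, with nuclear YAP1 driving constitutive expression, were treated the day after plating with compounds (11 concentrations, 4 replicates; 0.1% DMSO control). After 24 h, luciferase was read by ONE-Glo luminescence and IC50 determined.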
row,SMILES,IC50
1,"COc1ccc(Oc2ccc(C(F)(F)F)c(F)n2)cc1NC(=O)[C@H]1CCC(=O)N1C [Compound 402, (R)—N-(5-((6-Fluoro-5-(trifluoromethyl)pyridin-2-yl)oxy)-2-methoxyphenyl)-1-methyl-5-oxopyrrolidine-2-carboxamide]",< 50 nM
2,"CN1C(=O)NC[C@H]1C(=O)Nc1cc(/C=C/C2CCC(F)(F)CC2)cc2c1OCC2 [Compound 407, (S,E)-N-(5-(2-(4,4-Difluorocyclohexyl)vinyl)-2,3-dihydrobenzofuran-7-yl)-3-methyl-2-oxoimidazolidine-4-carboxamide]",< 50 nM
3,CN1C(=O)NC[C@H]1C(=O)Nc1cc(/C=C/C2CCC(F)(F)CC2)cc2c1OCO2 [Compound 409],< 50 nM
4,"COc1cc(Oc2ccc(O)c(NC(=O)C3CCC(=O)N3C)c2)ccc1C(F)(F)F (centres unmarked) [Compound 410, N-(2-Hydroxy-5-(3-methoxy-4-(trifluoromethyl)phenoxy)phenyl)-1-methyl-5-oxopyrrolidine-2-carboxamide]",301 to 2000 nM
5,"COc1ccc(Oc2ccc(C(F)(F)F)cc2O)cc1NC(=O)C1CCC(=O)N1C (centres unmarked) [Compound 411, N-(5-(2-Hydroxy-4-(trifluoromethyl)phenoxy)-2-methoxyphenyl)-1-methyl-5-oxopyrrolidine-2-carboxamide]",301 to 2000 nM
6,"COc1ccc(Oc2cccc(F)c2)cc1NC(=O)C1CCN(C(C)=O)C1 (centres unmarked) [Compound 413, 1-Acetyl-N-(5-(3-fluorophenoxy)-2-methoxyphenyl)pyrrolidine-3-carboxamide]",301 to 2000 nM

# Continued, values first:
row,IC50,SMILES
1,< 50 nM,"COc1ccc(Oc2ccc(C(F)(F)F)c(F)n2)cc1NC(=O)[C@@H]1CCC(=O)N1C [Compound 401, (S)—N-(5-((6-Fluoro-5-(trifluoromethyl)pyridin-2-yl)oxy)-2-methoxyphenyl)-1-methyl-5-oxopyrrolidine-2-carboxamide]"
2,< 50 nM,"COc1ccc(Oc2ccc(C(F)(F)F)cn2)cc1NC(=O)[C@@H]1CCC(=O)N1C [Compound 403, (S)—N-(2-Methoxy-5-((5-(trifluoromethyl)pyridin-2-yl)oxy)phenyl)-1-methyl-5-oxopyrrolidine-2-carboxamide]"
3,50 to 300 nM,"COc1ccc(/C=C/C2CCC(F)(F)CC2)cc1NC(=O)C1CNC(=O)N1 (centres unmarked) [Compound 404, (E)-N-(5-(2-(4,4-Difluorocyclohexyl)vinyl)-2-methoxyphenyl)-2-oxo-imidazolidine-4-carboxamide]"
4,< 50 nM,"CN1C(=O)CC[C@@H]1C(=O)Nc1cc(/C=C/C2CCC(F)(F)CC2)cc2c1OCC2 [Compound 405, (R,E)-N-(5-(2-(4,4-Difluorocyclohexyl)vinyl)-2,3-dihydrobenzofuran-7-yl)-1-methyl-5-oxopyrrolidine-2-carboxamide]"
5,< 50 nM,"CN1C(=O)CC[C@H]1C(=O)Nc1cc(/C=C/C2CCC(F)(F)CC2)cc2c1OCC2 [Compound 406, (S,E)-N-(5-(2-(4,4-Difluorocyclohexyl)vinyl)-2,3-dihydrobenzofuran-7-yl)-1-methyl-5-oxopyrrolidine-2-carboxamide]"
6,50 to 300 nM,"COc1ccc(/C=C/C2CCC(F)(F)CC2)cc1NC(=O)C1CN(C)C(=O)N1C (centres unmarked) [Compound 408, (E)-N-(5-(2-(4,4-Difluorocyclohexyl)vinyl)-2-methoxyphenyl)-1,3-dimethyl-2-oxoimidazolidine-4-carboxamide]"
7,301 to 2000 nM,"COc1ccc(Oc2ccc(C(F)(F)F)cc2)cc1NC(=O)C1CCN(C(C)=O)C1 (centres unmarked) [Compound 412, 1-Acetyl-N-(2-methoxy-5-(4-(trifluoromethyl)phenoxy)phenyl)-pyrrolidine-3-carboxamide]"
8,50 to 300 nM,"COc1ccc(Oc2ccc(C(F)(F)F)cc2)cc1N(C)C(=O)[C@@H]1CCC(=O)N1C [Compound 417, (S)—N-(2-Methoxy-5-(4-(trifluoromethyl)phenoxy)phenyl)-N,1-dimethyl-5-oxopyrrolidine-2-carboxamide]"
